{"source": "patent US11891352B2", "about": "“Aminomethyl-functionalized denatonium derivatives, their preparation and use” (Julius-Maximilians-Universitaet Wuerzburg, priority 2018, dated 2024)", "assay": "Stability of amino-functionalized denatonium derivatives (LC/MS measurements)", "type": "physicochemical", "source_text": "The decomposition of the substance is illustrated as follows: […]"}
{"smiles": "CC[N+](CC)(CC(=O)Nc1c(C)cccc1C)Cc1ccc(N)cc1", "note": "[derivative (1)]", "values": [{"measurement": "stability", "value": "not stable"}]}
